The results in this text go back to patent US11162124B2, “Alcohol dehydrogenase mutant and application thereof in cofactor regeneration” (Jiangnan University, priority 2018, dated 2021).

Holding throughout (format): biochemical
Assay [1] addresses T1, alcohol dehydrogenase KpADH mutant M1 (V84I; parent SEQ ID No. 1) (Vanderwaltozyma polyspora, UniProt A7TM80, V84I).
T1 sequence (A7TM80 1-342 V84I): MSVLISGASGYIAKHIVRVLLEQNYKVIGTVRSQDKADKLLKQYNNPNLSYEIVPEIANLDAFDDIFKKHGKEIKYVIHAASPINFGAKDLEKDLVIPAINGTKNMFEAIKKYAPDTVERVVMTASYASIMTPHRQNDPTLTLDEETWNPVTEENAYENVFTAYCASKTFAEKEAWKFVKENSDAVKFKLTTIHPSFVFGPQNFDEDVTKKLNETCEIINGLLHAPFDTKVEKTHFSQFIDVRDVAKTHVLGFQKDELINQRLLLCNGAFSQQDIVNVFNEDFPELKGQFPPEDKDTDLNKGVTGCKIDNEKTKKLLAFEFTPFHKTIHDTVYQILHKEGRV
As to the kind of experiment: Kinetic analysis of KpADH mutant M1 toward diol co-substrates. The method, then: M1 is obtained by mutating valine at position 84 into isoleucine in alcohol dehydrogenase having an original amino acid sequence as set forth in SEQ ID No. 1;
(§1) Changes in absorbance at 340 nm are measured.
(§2) The enzyme activity is calculated using the following formula: Enzyme activity (U)=EW×V×10^3/(6220×I);
(§3) In the formula, EW is the change in absorbance at 340 nm in 1 min; V is the volume of the reaction solution in mL; 6220 is the molar extinction coefficient of NAD(P)H in L/(mol·cm); I is optical distance in cm.
(§4) One unit of activity (U) corresponds to the amount of enzyme required for the catalytic oxidation of 1 μmol NADP^+ per minute under the above conditions.
(§5) Kinetic measurement is conducted according to the enzyme activity assay, with 10 μL of alcohol substrates of different concentrations, 1 mM NADP^+, 10 μL of enzymes of appropriate concentrations, 170 μL of glycine-sodium hydroxide buffer at pH 9.5, with each sample in triplicate. […] The calculation formulas are as follows: […]
(§6) The Vmax and Km values can be calculated from the intercepts of the double reciprocal plot on the X and Y axes;
(§7) The kcat value can be further calculated according to the formula.
(§8) The activity of KpADH under different substrate concentrations and cofactor concentrations was measured, and a double reciprocal plot was made according to the reciprocals of the activity and substrate concentration. The kinetic parameters were calculated.
(§9) The activity of KpADH under different substrate concentrations and cofactor concentrations was measured, and a double reciprocal plots were made according to the reciprocals of the activity and substrate concentration. The kinetic parameters were calculated.

Assay [2] deals with T2, alcohol dehydrogenase KpADH mutant M2 (Y127C; parent SEQ ID No. 1) (Vanderwaltozyma polyspora, UniProt A7TM80, Y127C).
T2 sequence (A7TM80 1-342 Y127C): T1 sequence (A7TM80 1-342 V84I) with I84V, Y127C
Nature of the assay: Kinetic analysis of KpADH mutant M2 toward diol co-substrates. As to the method: M2 is obtained by mutating tyrosine at position 127 into cysteine in alcohol dehydrogenase having an original amino acid sequence as set forth in SEQ ID No. 1;
as §1, §2, §3
One unit of activity (U) corresponds to the amount of enzyme required for the catalytic oxidation of 1 μmol NADP^+ per minute under the above conditions. […]
as §6, §7, §8, §9

Assay [3] has as its target T3, alcohol dehydrogenase KpADH mutant M3 (Y127M; parent SEQ ID No. 1) (Vanderwaltozyma polyspora, UniProt A7TM80, Y127M).
T3 sequence (A7TM80 1-342 Y127M): T1 sequence (A7TM80 1-342 V84I) with I84V, Y127M
Nature of the assay: Kinetic analysis of KpADH mutant M3 toward diol co-substrates. The conditions noted are these: mutant M3. As to the method: M3 is obtained by mutating tyrosine at position 127 into methionine in alcohol dehydrogenase having an original amino acid sequence as set forth in SEQ ID No. 1;
as §1, §2, §3, §4, §5, §6, §7, §8, §9

In assay [4] the target is T4, alcohol dehydrogenase KpADH mutant M5 (V84I/Y127M; parent SEQ ID No. 1) (Vanderwaltozyma polyspora, UniProt A7TM80, V84I/Y127M).
T4 sequence (A7TM80 1-342 V84I/Y127M): T1 sequence (A7TM80 1-342 V84I) with Y127M
Nature of the assay: Kinetic analysis of KpADH mutant M5 toward diol co-substrates. The conditions noted are these: mutant M5 relative to wild-type KpADH. The method, then:
the M5 is obtained by mutating valine at position 84 into isoleucine and tyrosine at position 127 into methionine in alcohol dehydrogenase having an original amino acid sequence as set forth in SEQ ID No. 1.
as §1, §2, §3, §4, §5, §6, §7, §8, §9

Where [5] appears, read: mutant M1, 1 mM NADP+, Gly-NaOH pH 9.5, 30° C.
Setting [6] is: mutant M1 relative to wild-type KpADH.

Substitutions are numbered along the chain they refer to.

The term kcat denotes the number of substrate molecules converted per active site and unit of time at saturation. As usually defined, the kcat/KM is the turnover number divided by the Michaelis constant. `OCCCCO` [1,4-butanediol]: in assay [1] (setting [5]), the kcat amounted to 1.26 ± 0.0217 s⁻¹ and the kcat/KM was found to be 10.3 M⁻¹ s⁻¹. In assay [1] (setting [6]), the “kcat value, times that of wild-type KpADH” value is given as 7.3 times and the “kcat/Km value, times that of wild-type KpADH” value was 4.53 times. Further, the catalytic rates kcat in assay [2] came out at 27.8 mM. Further, the catalytic rates kcat in assay [3] is recorded as 16.8 mM. The “kcat/Km value, times that of wild-type KpADH” value in assay [4] is listed as 14.7 times.
